# Assay results taken from US10000484B2, “Inhibitors of the renal outer medullary potassim channel” (MERCK SHARP & DOHME CORP., priority 2013, dated 2018).
# Biological target: T1, ROMK (Kir1.1) (Homo sapiens, UniProt P48048)
# T1 sequence (P48048 1-391): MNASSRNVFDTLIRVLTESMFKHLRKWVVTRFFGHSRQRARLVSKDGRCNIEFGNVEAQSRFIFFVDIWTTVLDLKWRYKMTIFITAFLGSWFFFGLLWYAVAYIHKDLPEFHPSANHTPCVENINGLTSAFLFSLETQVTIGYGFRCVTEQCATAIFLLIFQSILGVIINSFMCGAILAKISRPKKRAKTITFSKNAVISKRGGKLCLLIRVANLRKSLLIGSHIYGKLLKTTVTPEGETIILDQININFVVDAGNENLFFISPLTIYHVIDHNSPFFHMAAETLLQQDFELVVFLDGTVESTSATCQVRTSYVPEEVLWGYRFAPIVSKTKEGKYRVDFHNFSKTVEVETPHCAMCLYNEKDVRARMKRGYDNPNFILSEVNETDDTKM
# Test: 86Rb+ Efflux Assay, described in WO2013/062892 at pages 79-80
# Format: cell-based
# Details: values marked "(Rb)" in Table 10
# From the text: The data for Examples 2, 3, 4, 8, 9, 10, 15 and 32 were obtained using the ^86Rb^+ Efflux Assay, described in WO2013/062892 at pages 79-80.
row,SMILES,IC50
1,"N#Cc1ccc(-c2ncc3c(n2)CCN(CCc2ccc4c(c2)COC4=O)C3)cc1 [Example 2, 4-{6-[2-(1-oxo-1,3-dihydro-2-benzofuran-5-yl)ethyl]-5,6,7,8-tetrahydropyrido[4,3-d]pyrimidin-2-yl}benzonitrile]",0.306 µM
2,"N#Cc1ccc(-n2ncc3c2CCN(CCc2ccc4c(c2)COC4=O)C3)cc1 [Example 3, 4-{5-[2-(1-oxo-1,3-dihydro-2-benzofuran-5-yl)ethyl]-4,5,6,7-tetrahydro-1H-pyrazolo[4,3-c]pyridin-1-yl}benzonitrile]",0.501 µM
3,"Cc1c(CCN2CCc3nc(-c4ccc(C#N)cc4)ncc3C2)ccc2c1COC2=O [Example 4, 4-{6-[2-(4-methyl-1-oxo-1,3-dihydro-2-benzofuran-5-yl)ethyl]-5,6,7,8-tetrahydropyrido[4,3-d]pyrimidin-2-yl}benzonitrile]",0.304 µM
4,"Cc1c(CCN2CCc3c(cnn3-c3ccc(-n4cnnn4)cc3)C2)ccc2c1COC2=O [Example 8, 4-methyl-5-(2-{1-[4-(1H-tetrazol-1-yl)phenyl]-1,4,6,7-tetrahydro-5H-pyrazolo[4,3-c]pyridin-5-yl}ethyl)-2-benzofuran-1(3H)-one]",0.38 µM
5,"Cc1c(CCN2CCc3nc(-c4ccc5c(c4)COC5=O)ncc3C2)ccc2c1COC2=O [Example 9, 4-methyl-5-{2-[2-(1-oxo-1,3-dihydro-2-benzofuran-5-yl)-7,8-dihydropyrido[4,3-d]pyrimidin-6(5H)-yl]ethyl}-2-benzofuran-1(3H)-one]",0.0961 µM
6,"Cc1c(CCN2CCc3c(cnn3-c3ccc4c(c3)COC4=O)C2)ccc2c1COC2=O [Example 10, 4-methyl-5-{2-[1-(1-oxo-1,3-dihydro-2-benzofuran-5-yl)-1,4,6,7-tetrahydro-5H-pyrazolo[4,3-c]pyridin-5-yl]ethyl}-2-benzofuran-1(3H)-one]",0.066 µM
7,"COc1cc(-c2cn3c(n2)CN(CCc2ccc4c(c2C)COC4=O)CC3)ccc1C#N [Example 15, 2-methoxy-4-{7-[2-(4-methyl-1-oxo-1,3-dihydro-2-benzofuran-5-yl)ethyl]-5,6,7,8-tetrahydroimidazo[1,2-a]pyrazin-2-yl}benzonitrile]",0.197 µM
8,"Cc1c(C(O)CN2CCc3nc(-c4ccc5c(c4)COC5=O)ncc3C2)ccc2c1COC2=O (stereo not drawn) [Example 32, 5-{1-hydroxy-2-[2-(1-oxo-1,3-dihydro-2-benzofuran-5-yl)-7,8-dihydropyrido[4,3-d]pyrimidin-6(5H)-yl]ethyl}-4-methyl-2-benzofuran-1(3H)-one]",0.0699 µM

# Biological target: T2, hROMK (hKir1.1) (Homo sapiens, UniProt P48048)
# T2 construct: expressed in transfected cells
# T2 sequence (P48048 1-391): T1 sequence (P48048 1-391)
# Test: Thallium Flux Assay (ROMK channel functional thallium flux assay, FLIPR-Tetra)
# Format: cell-based
# Details: HEK293 cells stably expressing hROMK; 30 min incubation with compound
# Procedure: The following Thallium Flux Assay was performed on each of the final product compounds in the Examples. When the final product of an Example was an HCl salt, the salt was run in the Assay.
# HEK293 cells stably expressing hROMK (hKir1.1) were grown at 37° C. in a 10% CO2 humidified incubator in complete growth media: Dulbecco's Modified Eagle Medium supplemented with non-essential amino acids, Penicillin/Streptomycin/Glutamine, G418 and FBS. At >80% confluency, aspirate the media from the flask and rinse with 10 mL Calcium/Magnesium-free PBS. Add 5 mL of 1× trypsin (prepared in Ca/Mg Free PBS) to T-225 flask and return flask to 37° C./CO2 incubator for 2-3 minutes. To dislodge the cell, gently bang the side of the flask with your hand. Triturate the cells completely and then transfer the cells to 25 mL complete media. Centrifuge at 1,500 rpm for 6 min followed by resuspension in complete growth media and determine cell concentration. For typical re-seeding, 4E6 cells/T-225 flask will attain >80% confluency in 4 days. Under ideal growth conditions and appropriate tissue culture practices, this cell line is stable for 40-45 passages.
# FluxOR Kit Components (Invitrogen F10017)
# • FluxOR™ Reagent (Component A) • FluxOR™ Assay Buffer (Component B)—10× Concentrate • PowerLoad™ Concentrate (Component C)—100× Concentrate • Probenecid (Component D)—Lyophilized sample is kept at −20° C. Water soluble, 100× after solubilization in 1 mL water. Store at 4° C. • FluxOR™ Chloride-free Buffer (Component E)—5× Concentrate • Potassium sulfate (K2SO4) Concentrate (Component F)—125 mM in water. Store at 4° C. • Thallium sulfate (Tl2SO4) Concentrate (Component G)—50 mM in water. Store at 4° C. • DMSO (dimethyl sulfoxide, Component H)—1 mL (100%) Reagent Preparation: FluxOR Working Solutions • 1000× FluxOR™ Reagent: Reconstitute a vial of component A in 100 μl DMSO; Mix well; Store 10 μl aliquots at −20° C. • 1× FluxOR™ Assay Buffer: Dilute Component B 10-fold with water; Adjust pH to 7.4 with Hepes/NaOH; Filter and store at 4° C. • Probenecid/Assay Buffer: 100 mL of 1× FluxOR™ Assay Buffer; 1 mL of reconstituted component D; Store at 4° C. • Loading Buffer (per microplate): 10 μl 1000× FluxOR™ Reagent; 100 μl component C; 10 mL Probenecid/Assay Buffer • Compound Buffer (per microplate): 20 mL Probenecid/Assay Buffer; 0.3 mM ouabain (10 mM ouabain in water can be stored in amber bottle/aluminum foil at room temperature); Test compound • 1× FluxOR™ Chloride-Free Buffer: Prepare 1× working solution in water. Can be stored at room temperature • Stimulant Buffer (prepared at 5× final concentration in 1× FluxOR™ Chloride-Free Buffer): 7.5 mM Thallium sulfate and 0.75 mM Potassium sulfate (to give a final assay concentration of 3 mM Thallium/0.3 mM Potassium). Store at 4° C. when not in use. Assay Protocol—
# The ROMK channel functional thallium flux assay is performed in 384 wells, using the FLIPR-Tetra instrument. HEK-hKir1.1 cells are seeded in Poly-D-Lysine microplates and kept in a 37° C.-10% CO2 incubator overnight. On the day of the experiment, the growth media is replaced with the FluxOR™ reagent loading buffer and incubated, protected from light, at ambient temperature (23-25° C.) for 90 min. The loading buffer is replaced with assay buffer±test compound followed by 30 min incubation at ambient temperature, where the Thallium/Potassium stimulant is added to the microplate.
# 1. Seed HEK-hKir1.1 cells (50 μl at 20,000 cells/well) in 384-well PDL coated Microplates
# 2. Allow cells to adhere overnight in humidified 37° C./10% CO2 incubator
# 3. Completely remove cell growth media from microplate and replace with 25 μl loading buffer
# 4. Incubate Microplate at room temperature, protected form light, for 90 min
# 5. Remove loading buffer and replace with 25 μl 1× Assay Buffer±test compound.
# 6. Incubate microplate at room temperature, protected from light, for 30 min
# 7. At FLIPR-Tetra 384: Add stimulant (Thallium/Potassium) solution to microplate and monitor fluorescence. […]
row,SMILES,IC50
1,"Cc1c([C@@H](O)CN2CCn3c(-c4ccc5c(c4)C[C@H](C)OC5=O)cnc3C2)ccc2c1COC2=O [Example 44, (3S)-6-{7-[(2R)-2-hydroxy-2-(4-methyl-1-oxo-1,3-dihydro-2-benzofuran-5-yl)ethyl]-5,6,7,8-tetrahydroimidazo[1,2-a]pyrazin-3-yl}-3-methyl-3,4-dihydro-1H-isochromen-1-one]",0.301 µM
2,"Cc1cc(C#N)ccc1C1C[C@H]2CN(C[C@H](O)c3ccc4c(c3C)COC4=O)CCN2C1 (stereo partly drawn) [Example 45, 4-{(8aS)-2-[(2R)-2-hydroxy-2-(4-methyl-1-oxo-1,3-dihydro-2-benzofuran-5-yl)ethyl]octahydropyrrolo[1,2-a]pyrazin-7-yl}-3-methylbenzonitrile]",0.131 µM
3,"Cc1c([C@@H](O)CN2CCN3CC(c4ccc5c(c4)C[C@@H](C)OC5=O)C[C@H]3C2)ccc2c1COC2=O (stereo partly drawn) [Example 46, (3R)-6-{(8aS)-2-[(2R)-2-hydroxy-2-(4-methyl-1-oxo-1,3-dihydro-2-benzofuran-5-yl)ethyl]octahydropyrrolo[1,2-a]pyrazin-7-yl}-3-methyl-3,4-dihydro-1H-isochromen-1-one]",0.0814 µM
4,"Cc1c([C@@H](O)CN2CCc3cc(-c4ccc5c(c4)C[C@H](C)OC5=O)ccc3C2)ccc2c1COC2=O [Example 47, 2-[(2R)-2-hydroxy-2-(4-methyl-1-oxo-1,3-dihydro-2-benzofuran-5-yl)ethyl]-6-[(3S)-3-methyl-1-oxo-3,4-dihydro-1H-isochromen-6-yl]-1,2,3,4-tetrahydroisoquinoline]",0.249 µM
